# Laboratory results as given in ChEMBL document CHEMBL1143735, “Synthesis, anti-HIV activity, and resistance profile of thymidine phosphonomethoxy nucleosides and their bis-isopropyloxymethylcarbonyl (bisPOC) prodrugs” (Bioorg Med Chem, 2007).
# Tests used:
# [1] = target: Human immunodeficiency virus type 1 reverse transcriptase (Human immunodeficiency virus 1, UniProt Q72547); assay: Inhibition of HIV1 reverse transcriptase
# [2] = Cytotoxicity against MT2 cells; format: cell-based; settings: human
# [3] = test system: Human immunodeficiency virus 1; assay: Antiviral activity against HIV1 with reverse transcriptase 6TAM mutation assessed as reduction of potency relative to wild type; format: functional
# [4] = test system: Human immunodeficiency virus 1; assay: Antiviral activity against HIV with reverse transcriptase M184V mutation assessed as reduction of potency relative to wild type; format: functional
# [5] = test system: Human immunodeficiency virus 1; assay: Inhibition of virus-induced cytopathic effect in wild type HIV 3a infected MT2 cells after 5 days; format: functional, organism-based; settings: Human immunodeficiency virus 1, 3a, MT2, 120 h
# [6] = test system: Human immunodeficiency virus 1; assay: Antiviral activity against HIV1 with reverse transcriptase K65R mutation assessed as reduction of potency relative to wild type; format: functional
Compound,IC50 [1],CC50 [2],Fold change [3],Fold change [4],EC50 [5],Fold change [6]
Cc1cn([C@H]2C=C[C@@H](OCP(=O)(O)O)O2)c(=O)[nH]c1=O,0.39 µM,> 500 µM,13,1.1,26 µM,5.2
Cc1cn([C@H]2CC[C@@H](OCP(=O)(O)O)O2)c(=O)[nH]c1=O,5.4 µM,> 500 µM,–,–,> 200 µM,–
Cc1cn([C@H]2CC[C@@H](OCP(=O)(OCOC(=O)OC(C)C)OCOC(=O)OC(C)C)O2)c(=O)[nH]c1=O,–,> 50 µM,–,–,1.3 µM,–
Cc1cn([C@H]2CC[C@@H](OCP(=O)(O)O)O2)c(=O)[nH]c1=O.O=P(O)(O)OP(=O)(O)O,5.4 µM,> 500 µM,–,–,> 200 µM,–
Cc1cn([C@H]2C[C@H](N=[N+]=[N-])[C@@H](OCP(=O)(O)O)O2)c(=O)[nH]c1=O,–,–,–,–,> 200 µM,–
Cc1cn([C@H]2C=C[C@@H](OCP(=O)(OCOC(=O)OC(C)C)OCOC(=O)OC(C)C)O2)c(=O)[nH]c1=O,–,10 µM,–,–,0.91 µM,–
Cc1cn([C@H]2CC[C@@H](CO)O2)c(=O)[nH]c1=O,0.12 µM,–,–,–,> 200 µM,–
Cc1cn([C@H]2C=C[C@@H](COP(=O)(O)OP(=O)(O)OP(=O)(O)O)O2)c(=O)[nH]c1=O [STAVUDINE TRIPHOSPHATE],0.39 µM,> 500 µM,13,1.1,26 µM,5.2
Cc1cn([C@H]2C=C[C@@H](CO)O2)c(=O)[nH]c1=O [STAVUDINE],0.06 µM,286 µM,5.5,1.2,4.8 µM,2.3
C[C@H](Cn1cnc2c(N)ncnc21)OCP(=O)(O)O [TENOFOVIR ANHYDROUS],0.38 µM,> 200 µM,8.8,0.7,–,4.3
CC(C)OC(=O)OCOP(=O)(CO[C@H](C)Cn1cnc2c(N)ncnc21)OCOC(=O)OC(C)C.O=C(O)/C=C/C(=O)O [TENOFOVIR DISOPROXIL FUMARATE],–,> 50 µM,7.7,–,0.015 µM,3.1
Cc1cn([C@H]2C[C@H](N=[N+]=[N-])[C@@H](CO)O2)c(=O)[nH]c1=O [ZIDOVUDINE],–,> 200 µM,–,–,–,–
